Laboratory results: patent publication US8791139B2, “Anthranilic diamide derivatives” (Bayer Cropscience AG, priority 2010, dated 2014)
Like-named read-outs stand apart in the source and are kept apart here.

Columns and labels:
[1] = test system: Lucilia cuprina larvae; test: Lucilia cuprina test (LUCICU); format: in vivo; settings: application rate 100 ppm, after 48 h
Excerpt: (§1) Solvent: dimethyl sulphoxide
Vessels containing horse meat treated with the active compound preparation of the desired concentration are populated with about 20 Lucilia cuprina larvae.

[2] = test system: larvae of the mustard beetle (Phaedon cochleariae); test: Phaedon test (PHAECO spray treatment); settings: 168 h; for pest or weed control at 100 g/ha / pest or weed control at 500 g/ha: read-out: activity (beetle larvae killed)
[3] = logP by HPLC on reversed-phase columns (C18), EEC Directive 79/831 Annex V.A8; format: physicochemical
Experimental: The logP values reported in the table above and in the Preparation Examples were determined in accordance with EEC Directive 79/831 Annex V.A8 by HPLC (High Performance Liquid Chromatography) on reversed-phase columns (C18), with the following methods:
The LC-MS determination in the acidic range is carried out at pH 2.7 using the mobile phases 0.1% aqueous formic acid and acetonitrile (contains 0.1% formic acid), linear gradient from 10% acetonitrile to 95% acetonitrile
Calibration was carried out using unbranched alkan-2-ones (having from 3 to 16 carbon atoms) with known logP values (the logP values were determined by the retention times using linear interpolation between two successive alkanones).

[4] = test system: caterpillars of the armyworm (Spodoptera frugiperda); test: Spodoptera frugiperda test (SPODFR spray treatment); format: in vivo; settings: 168 h
Experimental: After 7 days, the effect in % is determined.

[5] = test system: green peach aphid (Myzus persicae); test: Myzus test (MYZUPE spray treatment); format: in vivo; settings: application rate 100 g/ha, after 6 days, Chinese cabbage leaf discs
[6] = test system: Boophilus microplus; test: Boophilus microplus test (BOOPMI injection); format: in vivo; settings: application rate 20 μg/animal, injection into abdomen, after 7 days
Experimental: as §1
The active compound solution is injected into the abdomen (Boophilus microplus), and the animals are transferred into dishes and stored in a climate-controlled room.
The activity is assessed by […] of fertile eggs. 100% means that none of the ticks has laid any fertile eggs.

[7] = read-out: activity (caterpillars killed)

| SMILES | pest or weed control at 100 g/ha [2] [%] | chromatographic logP ([3]; pH 2.7, log P) | pest or weed control at 100 g/ha [4, 7] [%] | other results |
| --- | --- | --- | --- | --- |
| Cc1cc(Cl)cc(C(=O)NC(C)C)c1NC(=O)c1cc(C#Cc2ccc(OC(F)(F)F)cc2)nn1-c1ncccc1Cl [Example 11] | 100 | 4.79 | 100 | efficacy (kill of larvae) [1]: 90% |
| Cc1cc(C#N)cc(C(N)=O)c1NC(=O)c1cc(C#Cc2ccc(OC(F)(F)F)cc2)nn1-c1ncccc1Cl [Example 12] | – | 3.58 | 100 | efficacy (kill of larvae) [1]: 90% |
| CNC(=O)c1cc(C#N)cc(C)c1NC(=O)c1cc(C(=O)Cn2nnc(C(F)(F)F)n2)nn1-c1ncccc1Cl [Example 15] | 100 | 2.89 | – | efficacy (kill of larvae) [1]: 100%; activity (aphids killed) [5]: 90%; pest or weed control at 20 g/ha [4, 7]: 100%; efficacy (no fertile eggs laid) [6]: 100% |
| CNC(=O)c1cc(C#N)cc(C)c1NC(=O)c1cc(C(=O)c2ccc(C(F)(F)F)nc2)nn1-c1ncccc1Cl [Example 18] | 100 | 3.01 | – | inhibition at 100 g/ha ([2]; read-out: % Activity, PHAECO): 100%; inhibition at 100 g/ha ([4]; 100 g/ha, 7 d, comparison with prior art): 100% |
| Cc1cc(C#N)cc(C(=O)NC(C)(C)C)c1NC(=O)c1cc(C(=O)c2ccc(C(F)(F)F)nc2)nn1-c1ncccc1Cl [Example 19] | – | 3.85 | – | pest or weed control at 500 g/ha [2]: 100%; pest or weed control at 500 g/ha [4, 7]: 100% |
| CNC(=O)c1cc(C#N)cc(C)c1NC(=O)c1cc(C(=O)c2nc(C(F)(F)F)cs2)nn1-c1ncccc1Cl [Example 20] | – | 2.77 | – | pest or weed control at 500 g/ha [2]: 100%; pest or weed control at 500 g/ha [4, 7]: 100% |
| Cc1cc(C#N)cc(C(=O)NC(C)C)c1NC(=O)c1cc(C(=O)c2nc(C(F)(F)F)cs2)nn1-c1ncccc1Cl [Example 21] | 100 | 3.24 | 100 | efficacy (kill of larvae) [1]: 100%; activity (aphids killed) [5]: 90% |
| CNC(=O)c1cc(Cl)cc(C)c1NC(=O)c1cc(N2CCN(c3cc(C(F)(F)F)cc(C(F)(F)F)c3)C2=O)nn1-c1ncccc1Cl [Example 22] | 100 | – | – | efficacy (kill of larvae) [1]: 100%; chromatographic logP ([3]; reversed-phase HPLC column (C18), pH 2.7, HPLC reversed-phase C18, acidic range pH 2.7, 0.1% aqueous formic acid/acetonitrile, table of compounds of formula (I), read-out: log P): 4.43; pest or weed control at 100 g/ha ([4]; application rate 100 g/ha, after 7 days, read-out: activity (caterpillars killed)): 100%; efficacy (no fertile eggs laid) [6]: 100% |
| CNC(=O)c1cc(Cl)cc(C)c1NC(=O)c1cc(CN(C=O)c2ccccc2NS(C)(=O)=O)nn1-c1ncccc1Cl [Example 32] | – | 2.09 | – | activity (aphids killed) [5]: 80% |
| CNC(=O)c1cc(Cl)cc(C)c1NC(=O)c1cc(CN(C=O)c2ccc(Cl)cc2NS(C)(=O)=O)nn1-c1ncccc1Cl [Example 33] | – | 2.49 | 100 | activity (aphids killed) [5]: 90% |
| CNC(=O)c1cc(C#N)cc(C)c1NC(=O)c1cc(C(O)Cn2nnc(C(F)(F)F)n2)nn1-c1ncccc1Cl (stereo not shown) [Example 63] | – | 2.01 | 100 | log P ([3]; pH 2.7): 2.27; activity (aphids killed) [5]: 80%; efficacy (no fertile eggs laid) [6]: 100% |
| CNC(=O)c1cc(C#N)cc(C)c1NC(=O)c1cc(/C=C/n2nnc(C(F)(F)F)n2)nn1-c1ncccc1Cl [Example 64] | 100 | 3.17 | 100 | – |
| Cc1cc(C#N)cc(C(=O)NC(C)C)c1NC(=O)c1cc(Nc2ccc(C(F)(F)F)cn2)nn1-c1ncccc1Cl [Example 67] | 100 | 3.31 | 100 | – |
| CNC(=O)c1cc(C#N)cc(C)c1NC(=O)c1cc(CN2CC(C(F)(F)F)C(c3ccc(Cl)cc3)=N2)nn1-c1ncccc1Cl (stereo not shown) [Example 68] | 100 | 3.66 | 100 | – |
| CNC(=O)c1cc(C#N)cc(C)c1NC(=O)c1cc(Nc2cc(C(F)(F)F)c(C(F)(F)F)cn2)nn1-c1ncccc1Cl [Example 71] | 100 | 3.5 | 100 | – |
| Cc1cc(C#N)cc(C(=O)NC(C)C)c1NC(=O)c1cc(Nc2ccc(C(F)(F)F)cc2)nn1-c1ncccc1Cl [Example 74] | 100 | 3.7 | 100 | – |
| Cc1cc(C#N)cc(C(=O)NC(C)C)c1NC(=O)c1cc(Oc2ccc(C(F)(F)F)cn2)nn1-c1ncccc1Cl [Example 76] | 100 | 3.4 | 100 | – |
| CNC(=O)c1cc(C#N)cc(C)c1NC(=O)c1cc(Oc2ccc(C(F)(F)F)cn2)nn1-c1ncccc1Cl [Example 77] | 100 | 2.89 | 100 | – |
